Assay results: patent publication US4666907A, “Phenothiazine and derivatives and analogs and use as leukotriene biosynthesis inhibitors” (Merck Frosst Canada, Inc., priority 1986, dated 1987)
In brackets after ≈: the same amount, converted by molar mass. Where two headings read alike, the source gives them in different places.

What was measured:
[1] = test system: sensitized guinea pig trachea; experiment: Antigen challenge 'in vitro' assay (egg albumin-induced contraction of sensitized tracheal chains); assay type: cell-based; settings: Cavia porcellus; for inhibition at 3 µg/mL: at 3 μg/ml; for inhibition at 10 µg/mL / inhibition at 1 µg/mL: read-out: In Vitro Antigen Challenge % Inhibition
Protocol: Male guinea pigs weighing 300-350 g were sensitized by injecting (i.p.) 0.5 ml of a suspension containing 0.4 mg of egg albumin (Ovalbumin, Grade V, Sigma Chemical Co.) and 4.0 g aluminum hydroxide in 19.6 ml of saline. Two weeks were permitted for sensitization to occur.
Three sensitized guinea pigs were stunned and exsanguinated. The tracheas were removed, freed of adhering tissue and divided longitudinally by cutting through the cartilaginous tissue directly opposite the muscle insertion. Each opened trachea was then transected between every second cartilage. Four of the cut sections were tied together, end to end in a series with No. 0.7 silk thread ensuring that the tracheal muscles were all in the same vertical plane. Thus, each chain consisted of tissue from three different animals.
The chain so formed was then suspended under 1 g of tension (by silk ties at each end) in a 20 ml organ bath containing 10 ml of modified^1 Krebs-Henseleit buffer solution gassed with 95% O2 and 5% CO2 at 37° C. Mepyramine (0.55 μg/ml) and indomethacin (2.67 μg/ml were added to the buffer to avoid the contribution of histamine receptors and cyclooxygenase products to the contraction. To record responses one end of the tracheal chain was attached to a Gould Statham UC-2 force displacement transducer which was connected to a Beckman Type R-dynograph.The preparations were allowed to equilibrate for one hour during which time the tissues were automatically washed (10 ml volume displacement) ever 6 minutes.
After the equilibration period the tissues were primed with methacholine (3 μg/lml; 1.5×10^-5 M), washed and allowed to recover to baseline. The tissues were treated again with a second dose of methacholine, washed, allowed to return to baseline and washed for an additional hour.
Two chains were used as a control. These were incubated in a concentration of egg albumin sufficient to induce an average contraction of 50-80% of the methacholine response.
Each compound to be tested was added to two other baths (at a final concentration in each bath of 10 μg/ml or lower) 15 minutes prior to challenging the fresh chains with egg albumin.
The response of the challenged tissue was expressed as a percentage of the methacholine maximum. The % inhibition for each compound was then calculated. Compounds which at 10 μg/ml (final concentration) inhibited the egg albumin response by 50% or more were retested at a lower concentration.

[2] = test system: LTB4 formation in rat PMN; experiment: Rat polymorphonuclear leukocyte (P.M.N.) assay, LTB4 formation; assay type: cell-based; settings: A-23187, LTB4
Protocol: Rats under ether anesthesia are injected (i.p.) with 8 ml of a suspension of sodium caseinate (6 grams in ca. 50 ml water). After 15-24 hours the rats are sacrificed (CO2) and the cells from the peritoneal cavity are recovered by lavage with 20 ml of buffer (Eages MEM containing 30 mM HEPES adjusted to pH 7.4 with NaOH). The cells are pelleted (350×g, 5 min.), resuspended in buffer with vigorous shaking, filtered through lens paper, recentrifuged and finally suspended in buffer at a concentration of […]. A 500 μl aliquot of PMN suspension and test compound are preincubated for 2 minutes at 37° C., followed by the addition of 10 μM A-23187. The suspension is stirred for an additional 4 minutes then bioassayed for LTB4 content by adding an aliquot to a second 500 μl portion of the PMN at 37° C. The LTB4 produced in the first incubation causes aggregation of the second PMN, which is measured as a change in light transmission. The size of the assay aliquot is chosen to give a submaximal transmission change (usually […]) for the untreated control. The percentage inhibition of LTB4 formation is calculated from the ratio of transmission change in the sample to the transmission change in the compound-free control.

[3] = test system: Mouse peritoneal macrophages; experiment: Mouse macrophage assay (zymosan-stimulated arachidonic acid metabolites, Leukotriene C4); assay type: cell-based; settings: read-out: Macrophage IC50
Protocol: Mouse peritoneal macrophages were treated sequentially with arachidonic acid (labelled with tritium); the compound being evaluated as an inhibitor, and a stimulator (zymosan). Metabolites derived from arachidonic acid (PGE2, 6-Keto PG-F1@ and Leukotriene C4) were separated from the incubation medium by extraction and chromatography, and then quantitated by determining the amount of radioactivity (cpm) associated with each of them. […] (This protocol is identical to that described in the reference except that the radioactivity herein associated with the LTC4 was determined by counting an aliquot of the final aqueous solution directly rather than chromatographing it first).
Reference: Humes, J. L. et al., J. Biol. Chem. 257, 1591-4 (1982).

asthmatic rats = experiment: Asthmatic rat assay (duration of dyspnoea after egg albumin aerosol); assay type: in vivo; settings: po, 1.5 mg/kg p.o.
Excerpt: Rats were obtained from an inbred line of asthmatic rats. Both female and male rats from 200 to 300 g were used.
Egg albumin (EA), grade V, crystallized and lyophilized, was obtained from Sigma Chemical Co., St. Louis. Bordetella pertussis vaccine, containing 30×10^9 killed bacteria per ml was obtained from the Institut Armand-Frappier, Laval des Rapides, Quebec. Aluminum hydroxide was obtained from the Regeis Chemical Company, Chicago.
The challenge and subsequent respiratory recordings were carried out in a clear plastic box with internal dimensions 10×6×4 inches. The top of the box was removable; in use, it was held firmly in place by four clamps and an airtight seal was maintained by a soft rubber gasket. […] A Fleisch No. 0000 pneumotachograph was inserted into one end of the box and coupled to a Grass volumetric pressure transducer (PT5-A) which was then connected to a Beckman Type R Dynograph through appropriate couplers. While aerosilizing the antigen, the outlets were open and the pneumotachograph was isolated from the chamber. The outlets were closed and the pneumotachograph and the chamber were connected during the recording or the respiratory patterns. For challenge, 2 ml of a 3% solution of antigen in saline was placed into each nebulizer and the aerosol was generated with air from a small Potter diaphragm pump operating at 10 psi and a flow of 8 liters/minutes.
Rats were sensitized by injection (s.c.) 1 ml of a suspension containing 1 mg EA and 200 mg aluminum hydroxide in saline. Simultaneously, they received an injection (i.p.) of 0.5 ml of B. pertussis vaccine. They were used between days 14 and 18 postsensitization. In order to eliminate the serotonin component of the response, rats were pretreated intravenously 5 minutes prior to aerosol challenge with […] methylserzide. Rats were then exposed to an aerosol of 3% EA in saline for exactly 1 minute, then their respiratory profiles were recorded for a further 25-30 minutes. The duration of continuous dyspnoea was measured from the respiratory recordings.
Compounds were generally administered either intraperitoneally 1 hour prior to challenge or orally 11/2 hours prior to challenge. They were either dissolved in dimethylsulfoxide or suspended in 0.1% methocel and 0.5% Tween 80. The volume injected has 2 ml kg^-1 (intraperitoneally) or 10 ml kg^-1 (orally). Prior to oral treatment rats were starved overnight. Their activity was determined in terms of their ability to decrease the duration of symptoms of dyspnoea in comparison with a group of vehicle-treated controls. Usually, a compound was evaluated at a series of doses and an ED50 was determined. This was defined as the dose (mg/kg) which would inhibit the duration of symptoms by 50%.

[4] = mouse peritoneal macrophages, zymosan

Compound | IC50 [2] | IC50 [3, 4] | inhibition at 10 µg/mL ([1]; at 10 μg/ml) | further results
Cc1ccc(S(=O)(=O)Oc2ccc3c(c2Cl)Sc2ccccc2N3)cc1 [Compound 10] | 0.1 to 1 µg/mL (≈ 0.248 to 2.48 µM) |  |  | inhibition at 3 µg/mL [1]: 14%
CC(=O)Oc1ccc2c(c1Cl)Sc1ccccc1N2 [Compound 11] |  | 0.1 µg/mL | 100% | 
COc1ccc2c(c1Cl)Sc1ccccc1N2 [Compound 12] | 0.01 to 0.1 µg/mL (≈ 0.0379 to 0.379 µM) |  |  | inhibition at 1 µg/mL ([1]; at 1 μg/ml): 60%
COc1ccc2c(c1)Sc1cc(Cl)ccc1N2 [Compound 13] |  | 0.12 µg/mL | 22% | 
Clc1ccc2c(c1)Sc1cc(Cl)ccc1N2 [Compound 14] | 0.005 to 0.05 µg/mL (≈ 0.0186 to 0.186 µM) | 0.01 to 0.1 µg/mL | 1% | 
O=[N+]([O-])c1ccc2c(c1)Sc1cc([N+](=O)[O-])ccc1N2 [Compound 15] |  | 0.0016 to 0.008 µg/mL | 21% | 
COc1ccc2c(c1)Sc1c(cc(OC)c(O)c1Br)N2 [Compound 16] | 0.01 µg/mL (≈ 0.0282 µM) |  |  | 
CN(C)c1ccc2c(c1)Sc1cc(N(C)C)ccc1N2 [Compound 17] |  | 5 µg/mL |  | 
Oc1cccc2c1Nc1ccccc1S2 [Compound 18] | 0.05 to 0.5 µg/mL (≈ 0.232 to 2.32 µM) |  | 3% | 
CC(=O)Oc1ccc2c(c1)Sc1cc(F)ccc1N2 [Compound 19] | 0.005 µg/mL (≈ 0.0182 µM) |  |  | 
CC(C)C(=O)Oc1ccc2c(c1Cl)Sc1ccccc1N2 [Compound 20] | 0.005 to 0.05 µg/mL (≈ 0.0156 to 0.156 µM) |  | 65% | 
CC(=O)N1c2ccccc2Sc2ccccc21 [Compound 21] |  | 5 µg/mL |  | 
COc1ccc2c(c1Cl)Sc1ccccc1N2C(C)=O [Compound 22] | 1 µg/mL (≈ 3.27 µM) | 1 µg/mL | 91% | 
FC(F)(F)c1ccc2c(c1)Nc1ccccc1O2 [Compound 23] | 0.05 to 0.5 µg/mL (≈ 0.199 to 1.99 µM) |  |  | inhibition at 3 µg/mL [1]: 40%
c1ccc2c(c1)Nc1ccccc1O2 [Compound 24] | 5 µg/mL (≈ 27.3 µM) |  |  | IC50 ([3]; Mus musculus): 0.1 µg/mL; inhibition at 1 µg/mL [1]: 88%
CC(=O)Oc1ccc2c(c1)Sc1cccc(Cl)c1N2C [Compound 25] | 0.5 µg/mL (≈ 1.64 µM) |  |  | inhibition at 3 µg/mL [1]: 1 to 9%
COc1ccc2c(c1Cl)Sc1ccccc1N2C [Compound 26] | 5 µg/mL (≈ 18 µM) | 1 µg/mL | 3% | 
CC(C)C(=O)Oc1ccc2c(c1Cl)Sc1ccccc1N2C [Compound 27] | 0.005 to 0.05 µg/mL (≈ 0.015 to 0.15 µM) |  |  | inhibition at 3 µg/mL [1]: 6%
c1ccc2c(c1)Nc1ccccc1S2 [drawing 34] | 0.4 µg/mL (≈ 2.01 µM) |  |  | IC50 ([3]; Mus musculus): 0.06 µg/mL; inhibition at 10 µg/mL [1]: 100%
c1ccc2c(c1)Nc1ccccc1O2 [drawing 75] |  |  |  | inhibition in vivo at 1.5 mg/kg (asthmatic rats): 51%
